This is an account of results in paper PMC4126480, “Evaluation of drug interaction potential of Labisia pumila (Kacip Fatimah) and its constituents” (Frontiers in Pharmacology, 2014).

For data set [1], the target named is T1, CYP3A4 (Homo sapiens, UniProt P08684).
T1 construct: purchased BD Gentest (Woburn, MA, USA); host or cells: baculovirus expression system
Kind of data set: Reversible inhibition (co-incubation assay) of recombinant CYP3A4, fluorescent substrate. In kind it is in vitro ADME. The protocol: The assay for reversible inhibition was conducted in a total volume of 200 μL in 96-well microplates. […] Test samples or positive controls were serially diluted in a solution (100 μL) of cofactors mix, control protein (0.05 mg of protein/mL), and G-6-PDH to achieve six concentrations (100-0.4 μM or μg/mL). Initial readings were taken to record any inherent fluorescence and the plates were incubated at 37°C for 10 min. Reaction was initiated by the addition of enzyme substrate mixture (100 μL) followed by incubation for 15, 30, or 45 min. The reaction was terminated by the addition of 75 μL of ice cold acetonitrile/0.5 M Tris base (80:20). Fluorescence was measured on Spectramax M5 plate reader (Molecular Devices, Sunnyvale, CA, USA) at specified excitation and emission wavelengths for each substrate. IC50 values (co-incubation assay) were obtained from concentration-response curves generated by plotting concentration versus % inhibition.

Another data set has as its target T2, CYP2C19 (Homo sapiens, UniProt P33261).
T2 construct: purchased BD Gentest (Woburn, MA, USA); host or cells: baculovirus expression system
Kind of data set: Time dependent inhibition (pre-incubation assay) of recombinant CYP2C19. The conditions noted are these: recombinant CYP2C19, 30 min pre-incubation. In kind it is in vitro ADME. The protocol:
Time dependent inhibition (TDI) of CYPs was measured as described earlier by [Sekiguchi et al. (2009)]. The reaction mixture (180–190 μL), consisting of test sample, recombinant enzyme, control protein (0.05 mg of protein/mL), cofactor mix, G-6-PDH, and 50 mM potassium phosphate buffer (pH 7.4) was pre-incubated for 30 min followed by addition of respective fluorescent substrates (10–20 μL) and further incubation for 15 (CYP1A2), 30 (CYP3A4), or 45 (CYP 2C9 and 2C19) min. The reaction was terminated by addition of 75 μL of ice cold acetonitrile/0.5 M Tris base (80:20) and fluorescence was measured as above. IC50 values (pre-incubation assay) were obtained as above. The shift in the concentration-response curve was calculated as the ratio of IC50 (co-incubation)/IC50 (pre-incubation).

For the next data set, the target named is T3, CYP1A2 (Homo sapiens, UniProt P05177).
T3 construct: purchased BD Gentest (Woburn, MA, USA); host or cells: baculovirus expression system
T3 sequence (P05177 1-516): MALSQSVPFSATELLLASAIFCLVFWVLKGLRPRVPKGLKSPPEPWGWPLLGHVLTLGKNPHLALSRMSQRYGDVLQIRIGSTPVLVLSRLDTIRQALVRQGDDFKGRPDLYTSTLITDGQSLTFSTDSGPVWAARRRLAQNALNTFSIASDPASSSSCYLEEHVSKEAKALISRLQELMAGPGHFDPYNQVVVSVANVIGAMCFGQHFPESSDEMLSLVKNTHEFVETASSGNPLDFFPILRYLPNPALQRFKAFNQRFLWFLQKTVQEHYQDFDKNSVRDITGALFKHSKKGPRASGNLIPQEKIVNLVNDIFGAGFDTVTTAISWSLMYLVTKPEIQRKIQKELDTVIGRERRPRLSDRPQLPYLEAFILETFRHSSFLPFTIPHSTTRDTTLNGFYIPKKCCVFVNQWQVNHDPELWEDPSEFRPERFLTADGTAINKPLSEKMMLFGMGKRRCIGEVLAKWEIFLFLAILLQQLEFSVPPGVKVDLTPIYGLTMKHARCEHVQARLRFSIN
Kind of data set: Reversible inhibition of recombinant CYP1A2. The format is in vitro ADME. The protocol:
The assay for reversible inhibition was conducted in a total volume of 200 μL in 96-well microplates. The assay conditions, enzyme and substrate concentrations were similar as reported earlier ([Crespi et al., 1997]; [Manda et al., 2013]). Test samples or positive controls were serially diluted in a solution (100 μL) of cofactors mix, control protein (0.05 mg of protein/mL), and G-6-PDH to achieve six concentrations (100-0.4 μM or μg/mL). Initial readings were taken to record any inherent fluorescence and the plates were incubated at 37°C for 10 min. Reaction was initiated by the addition of enzyme substrate mixture (100 μL) followed by incubation for 15, 30, or 45 min. The reaction was terminated by the addition of 75 μL of ice cold acetonitrile/0.5 M Tris base (80:20). Fluorescence was measured on Spectramax M5 plate reader (Molecular Devices, Sunnyvale, CA, USA) at specified excitation and emission wavelengths for each substrate. IC50 values (co-incubation assay) were obtained from concentration-response curves generated by plotting concentration versus % inhibition.

Data set [2] can be described thus: Estimation of concentration per dose, GIT and plasma concentrations (560 mg KF extract dose). The settings on record: for Estimated concentration per dose: 560 mg KF extract, single dose, from % yield; for Estimated GIT concentration / Estimated Plasma concentration: 560 mg dose; for Estimated GIT concentration: human GIT volume 250 mL; for Estimated Plasma concentration: Table 2, plasma volume 3 L, 100% bioavailable assumed. Details: species or system human. The protocol:
(§1) All assumptions to predict the HDI potential of KF methanolic extract and its constituents were according to previously published report ([Awortwe et al., 2014]). The % yield was calculated from the amounts extracted from the KF roots ([Ali and Khan, 2011]). The human GIT volume is 250 mL and plasma volume is about 3 L. The commonly used maximum dose of KF extract capsules is 560 mg per day ([Abdul Kadir et al., 2012]) and accordingly we estimated the concentration per dose, GIT, and plasma concentrations of extract and its constituents. We then compared the in vitro IC50 values obtained from recombinant CYPs with estimated GIT and plasma concentrations. If the IC50 values were lower than the GIT or plasma concentration, then the test compound or extract is likely to cause HDI in vivo.

Data set [3] deals with T1, CYP3A4. Kind of data set: Prediction of in vivo HDI from in vitro results, CYP3A4. Further details: key to Likelihood of causing HDI: If the IC50 values were lower than the GIT or plasma concentration, then the test compound or extract is likely to cause HDI in vivo. The conditions noted are these: for Likelihood of causing HDI: CYP3A4, IC50 compared with estimated GIT and plasma concentrations; for Plasma concentration: Table 3, CYP3A4 section. The protocol: as §1

As usually defined, the IC50 is the concentration that gives 50% inhibition.

Structures are written as SMILES. Where “and” joins values, the source holds several entries; their conditions need not be identical. Equal entries are not always repeated.

T2 sequence (P33261 whole entry): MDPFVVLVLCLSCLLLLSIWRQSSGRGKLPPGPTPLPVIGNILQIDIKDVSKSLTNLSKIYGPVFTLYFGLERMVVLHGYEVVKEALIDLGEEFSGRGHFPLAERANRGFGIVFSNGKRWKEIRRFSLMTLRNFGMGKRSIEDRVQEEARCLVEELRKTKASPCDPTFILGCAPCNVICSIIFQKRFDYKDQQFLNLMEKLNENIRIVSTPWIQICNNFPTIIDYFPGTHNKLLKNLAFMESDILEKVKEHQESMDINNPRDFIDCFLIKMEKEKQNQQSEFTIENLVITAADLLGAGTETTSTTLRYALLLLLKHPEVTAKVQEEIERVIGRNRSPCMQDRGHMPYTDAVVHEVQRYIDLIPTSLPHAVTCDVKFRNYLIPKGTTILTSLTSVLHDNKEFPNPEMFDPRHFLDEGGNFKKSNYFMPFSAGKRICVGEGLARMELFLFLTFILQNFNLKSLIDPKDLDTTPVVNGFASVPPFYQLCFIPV
T1 sequence (P08684 whole entry): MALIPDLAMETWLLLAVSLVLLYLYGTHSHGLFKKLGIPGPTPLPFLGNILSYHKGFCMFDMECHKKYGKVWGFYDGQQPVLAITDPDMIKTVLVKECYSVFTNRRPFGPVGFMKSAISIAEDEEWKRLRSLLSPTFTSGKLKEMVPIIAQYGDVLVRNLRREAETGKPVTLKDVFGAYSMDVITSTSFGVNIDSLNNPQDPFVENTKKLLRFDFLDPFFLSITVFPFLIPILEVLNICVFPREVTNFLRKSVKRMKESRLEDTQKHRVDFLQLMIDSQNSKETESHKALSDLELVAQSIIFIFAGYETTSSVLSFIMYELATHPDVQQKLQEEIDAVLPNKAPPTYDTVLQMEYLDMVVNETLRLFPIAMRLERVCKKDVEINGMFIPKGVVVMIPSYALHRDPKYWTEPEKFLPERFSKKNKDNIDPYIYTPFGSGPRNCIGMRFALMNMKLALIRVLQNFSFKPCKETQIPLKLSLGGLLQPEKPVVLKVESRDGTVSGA

For the compound `CCCC/C=C\CCCCCCCCCc1cc(O)cc(O)c1` [5-[10(Z)-pentadecenyl]resorcinol], the IC50 on CYP3A4 [1] was 4.1 µM and 4.4 µM. In addition, the IC50 on CYP2C19 is 3.2 ± 0.2 µM. Further, on CYP1A2, the 50% inhibitory concentration (IC50) is 91.1 µM. Further, in data set [2], the “Estimated concentration per dose” value is recorded as 6.72 mg/mL, the “Estimated GIT concentration” value is 27.1 µg/mL and the “Estimated Plasma concentration” value is 2.2 µg/mL. Also, at CYP3A4 [3], the “Likelihood of causing HDI” value was “likely” and the Plasma concentration was 13220 ng/mL.
For the compound `CCCC/C=C\CCCCCCCCCc1cc(O)cc(OC)c1` [Belamcandol B], at CYP3A4 [1], the IC50 is 18 µM and 45.1 µM. Also, the half-maximal inhibitory concentration (IC50) on CYP2C19 came to 3.2 ± 0.3 µM. Further, the 50% inhibitory concentration (IC50) on CYP1A2 was 220 µM. For the same compound, in data set [2], the “Estimated concentration per dose” value was 3.41 mg/mL, the “Estimated GIT concentration” value is 13.64 µg/mL and the “Estimated Plasma concentration” value was 1.13 µg/mL. Moreover, on CYP3A4 [3], the “Likelihood of causing HDI” value is listed as “Remote” and the Plasma concentration was 1520 ng/mL.
Take `CCCC/C=C\CCCCCCCCCC1=C(c2c(O)cc(O)cc2CCCCCCCCC/C=C\CCCC)C(=O)C=C(OC)C1=O` [Demethylbelamcandaquinone B]: the concentration for half-maximal inhibition (IC50) on CYP3A4 [1] is 69 µM and 67.9 µM. In addition, the half-inhibitory concentration (IC50) on CYP2C19 is 11 ± 0.7 µM. Moreover, the IC50 on CYP1A2 is 75.4 µM. In data set [2], the “Estimated concentration per dose” value is recorded as 6.77 mg/mL, the “Estimated GIT concentration” value was 27.1 µg/mL and the “Estimated Plasma concentration” value was 2.25 µg/mL. Moreover, on CYP3A4 [3], the “Likelihood of causing HDI” value was “unlikely” and the Plasma concentration was 790 ng/mL.
In the case of `CCCC/C=C\CCCCCCCCCc1cc(O)cc2oc3cc(OC)c(O)c(CCCCCCCCC/C=C\CCCC)c3c12` [Fatimahol], the IC50 at CYP3A4 [1] was 25 µM and 24.7 µM. Also, the concentration for half-maximal inhibition (IC50) at CYP2C19 was found to be 16 ± 1.1 µM. Also, the IC50 on CYP1A2 is 47.9 µM. In data set [2], the “Estimated concentration per dose” value was 0.05 mg/mL, the “Estimated GIT concentration” value was 0.20 µg/mL and the “Estimated Plasma concentration” value is 0.016 µg/mL. At CYP3A4 [3], the “Likelihood of causing HDI” value is recorded as “unlikely” and the Plasma concentration was 16 ng/mL.
